Each block holds one compound with its values, some of them ahead of it. Activity calls are given as the source filed them. No cut-off for these calls is given here.
Assays:
[1] = Binding affinity HSP90 ATPase domain assessed as broadening of compound signals using [13C]labeled compound at 200 uM by NMR spectroscopy
[2] = Binding affinity to HSP90 ATPase domain by TR-FRET assay
[3] = Binding affinity to HSP90 ATPase domain assessed as broadening of compound signals using [13C]labeled compound at 20 uM by NMR spectroscopy
[4] = Binding affinity HSP90 ATPase domain at 100 uM by STD competition spectroscopy
Bos taurus = organism: Bos taurus; assay: Binding affinity bovine carbonic anhydrase assessed as broadening of compound signals using [13C]labeled compound at 20 uM by NMR spectroscopy
[5] = Binding affinity bovine carbonic anhydrase by surface plasma resonance method; design: species or system Bos taurus
[6] = Binding affinity bovine carbonic anhydrase; design: species or system Bos taurus

Compound: Cc1cc(-c2ccccc2)nc(N)n1
Ki [2]: 14 µM

Compound: COc1ccc(Cl)cc1-c1cc(C)nc(N)n1
Activity [3]: Dose-dependent effect
Ki [2]: 11 µM
Activity [4]: Active

Further lines, results first:

Activity [1]: Active
Ki [2]: 5 µM
Compound: Cc1cc(-c2cccc3ccccc23)nc(N)n1

Activity (Bos taurus): Active
Kd [5]: 1 µM
Compound: NS(=O)(=O)c1ccc(F)cc1

Ki [6]: 48 µM
Compound: CCN1CCCC1CNC(=O)c1cc(S(N)(=O)=O)ccc1OC (centres undefined) [SULPIRIDE]
